The series relates to stratum corneum of the cultured artificial skin (human epidermal keratinocytes). Nature of the series: Test Example 2: transdermal penetration of hydrophobic fluorescent dye (Nile red) into artificial skin. To be noted: after a night, stratum corneum average thickness 10.73 μm, FIG. 7. The class given is in vitro ADME. How it is done:
The following experiment was conducted in order to investigate whether the core-shell network structure according to an exemplary embodiment of the present disclosure serves as a carrier facilitating the transdermal absorption of an active substance.
First, a core-shell network solution (Example 3) was prepared in the same manner as in Example 2 except that, instead of the red ginseng saponin as the active substance, a hydrophobic fluorescent dye (Nile red, Sigma-Aldrich) was encapsulated at a concentration of […]. The contents of zein, pullulan and pectin of Example 3 based on the total weight of the composition were 0.01 wt %, 0.02 wt % and 0.002 wt %, respectively. […]
The cells were exposed to the air by removing the medium except for the part occupied by the cells. […] After freezing using an OCT (Cryomatrix, Thermo Scientific) and slicing to a thickness of 10 μm, the frozen sections were imaged with a fluorescence microscope (BX53, Olympus, Japan) and a microscopic digital camera (DP72, Olympus, Japan). […] To compare the effect of the present disclosure, the stratum corneum of the skin was treated only with a hydrophobic fluorescent dye in Comparative Example 3, and the degree of penetration of the hydrophobic fluorescent dye was analyzed in the same manner.

The text below walks through data of patent publication US11759430B2, “Active substance carrier comprising biopolymer” (AMOREPACIFIC CORPORATION, priority 2019, dated 2023).

Turning to `CCN(CC)c1ccc2nc3c4ccccc4c(=O)cc-3oc2c1` [Comparative Example 3, Nile red], the “penetration depth of the dye into the stratum corneum, on average” value is listed as “about 3.62 μm”.
